Reference: ChEMBL document CHEMBL3046832, “Synthesis of some sulfonamides, disubstituted sulfonylureas or thioureas and some structurally related variants. A class of promising antitumor agents” (2007)

Experiments:
Assay type in all cases: functional
[1] = system: HOP-92; test: Cytotoxicity against Homo sapiens (human) HOP92 cells after 48 hr by SRB assay; conditions: HOP-92, 48 h
[2] = system: NCI-H226; test: Cytotoxicity against Homo sapiens (human) NCI-H226 cells after 48 hr by SRB assay; conditions: NCI-H226, 48 h
[3] = system: RXF 393; test: Cytotoxicity against Homo sapiens (human) RXF393 cells after 48 hr by SRB assay; conditions: RXF 393, 48 h
[4] = system: TK-10; test: Cytotoxicity against Homo sapiens (human) TK10 cells after 48 hr by SRB assay; conditions: TK-10, 48 h
[5] = system: HCT-116; test: Cytotoxicity against Homo sapiens (human) HCT116 cells after 48 hr by SRB assay; conditions: HCT-116, 48 h
[6] = system: PC-3; test: Cytotoxicity against Homo sapiens (human) PC3 cells after 48 hr by SRB assay; conditions: PC-3, 48 h
[7] = system: SF-268; test: Cytotoxicity against Homo sapiens (human) SF268 cells assessed as cellular growth after 48 hr by Alamar blue assay; parameters: concentration or dose not given beside the values
[8] = system: KM12; test: Cytotoxicity against Homo sapiens (human) KM12 cells after 48 hr by SRB assay; conditions: KM12, 48 h
[9] = system: K562; test: Cytotoxicity against Homo sapiens (human) K562 cells after 48 hr by SRB assay; conditions: K562, 48 h
[10] = system: SW-620; test: Cytotoxicity against Homo sapiens (human) SW620 cells after 48 hr by SRB assay; conditions: SW-620, 48 h
[11] = system: SK-OV-3; test: Cytotoxicity against Homo sapiens (human) SKOV3 cells after 48 hr by SRB assay; conditions: SK-OV-3, 48 h
[12] = system: SNB-19; test: Cytotoxicity against Homo sapiens (human) SNB19 cells after 48 hr by SRB assay; conditions: SNB-19, 48 h
[13] = system: SK-MEL-28; test: Cytotoxicity against Homo sapiens (human) SK-MEL-28 cells after 48 hr by SRB assay; conditions: SK-MEL-28, 48 h
[14] = system: NCI-H460; test: Cytotoxicity against Homo sapiens (human) NCI-H460 cells after 48 hr by SRB assay; conditions: NCI-H460, 48 h
[15] = system: BT-549; test: Cytotoxicity against Homo sapiens (human) BT549 cells after 48 hr by SRB assay; conditions: BT-549, 48 h
[16] = Cytotoxicity against Homo sapiens (human) ovarian cancer cells after 48 hr by SRB assay; conditions: Cancer cell lines
[17] = system: SK-MEL-2; test: Cytotoxicity against Homo sapiens (human) SK-MEL-2 cells after 48 hr by SRB assay; conditions: SK-MEL-2, 48 h
[18] = system: SN12C; test: Cytotoxicity against Homo sapiens (human) SN12C cells after 48 hr by SRB assay
[19] = system: RPMI-8226; test: Cytotoxicity against Homo sapiens (human) RPMI8226 cells after 48 hr by SRB assay; conditions: RPMI-8226, 48 h
[20] = Cytotoxicity against Homo sapiens (human) NCI-ADR-RES cells after 48 hr by SRB assay

| Structure (SMILES) | GI50 [1] | GI50 [3] | GI50 [4] | GI50 [5] | GI50 [6] | Activity [7] | GI50 [8] | GI50 [9] | GI50 [10] | GI50 [11] | GI50 [12] | GI50 [13] | GI50 [14] | GI50 [15] | GI50 [16] | TGI [16] | GI50 [17] | GI50 [18] | GI50 [19] | GI50 [20] | other results |
| --- | --- | --- | --- | --- | --- | --- | --- | --- | --- | --- | --- | --- | --- | --- | --- | --- | --- | --- | --- | --- | --- |
| NS(=O)(=O)c1ccc(-n2nc3c(c2-c2cccs2)Cc2ccccc2-3)cc1 | 5.56 µM | 17.4 µM | 12.2 µM | 7.67 µM | 20.6 µM | <=32% | 13.5 µM | 0.86 µM | 10.7 µM | 37.7 µM | 18.1 µM | 25.8 µM | > 100 µM | 12.4 µM | 20.6 µM | 37.3 µM | 27.6 µM | 12.2 µM | 6.68 µM | 12.4 µM | GI50 [2]: 4.9 µM |
| NS(=O)(=O)c1ccc(N2N=C3c4ccccc4CC3C2c2cccs2)cc1 (stereo not given) | 25.8 µM | 20.6 µM | 13.2 µM | 10.7 µM | 22.1 µM | <=32% | 15.7 µM | 57.5 µM | 35.4 µM | 48 µM | 34.4 µM | 75.6 µM | > 100 µM | 19.3 µM | 40.8 µM | 79.6 µM | > 100 µM | 23.5 µM | 32.3 µM | 17.1 µM | – |
| O=C(Nc1ccccc1)NS(=O)(=O)c1ccc(N2N=C3c4ccccc4CC3C2c2cccnc2)cc1 (stereo not given) | 74.9 µM | 45.3 µM | 11.7 µM | 15.3 µM | 36.2 µM | <=32% | 24.8 µM | 26.6 µM | 34 µM | > 100 µM | 83.9 µM | 71.5 µM | 38.5 µM | 30.6 µM | 48.6 µM | 90.8 µM | 35.6 µM | 30.4 µM | 27.1 µM | 64.4 µM | GI50 [2]: 23.7 µM |
| O=C(NC1CCCCC1)NS(=O)(=O)c1ccc(-n2nc3c(c2-c2cccs2)Cc2ccccc2-3)cc1 | 14.3 µM | 29.2 µM | 17.5 µM | 31.6 µM | 14.5 µM | <=32% | 34.9 µM | 10 µM | 20.7 µM | 44.5 µM | 56.8 µM | 34.2 µM | 93 µM | 33.7 µM | 25.3 µM | 80.3 µM | 23.6 µM | 21.5 µM | 10.7 µM | 20.4 µM | GI50 [2]: 21.3 µM |
| O=C(Nc1ccccc1)NS(=O)(=O)c1ccc(-n2nc3c(c2-c2cccs2)Cc2ccccc2-3)cc1 | 12.3 µM | 85.3 µM | 4.99 µM | 9.13 µM | 10.4 µM | <=32% | 8.08 µM | 14 µM | 22.9 µM | 60.8 µM | > 100 µM | 50.2 µM | 18.9 µM | 24.1 µM | 31.2 µM | 98.3 µM | 70.1 µM | 19.9 µM | 5.49 µM | 16.1 µM | GI50 [2]: 19.2 µM |
| O=S(=O)(NC(=S)Nc1ccccc1)c1ccc(N2N=C3c4ccccc4CC3C2c2cccs2)cc1 (stereo not given) | 24.9 µM | 78.1 µM | 12.2 µM | 15.1 µM | 22.9 µM | <=32% | 21.5 µM | 31.3 µM | 30 µM | 49.5 µM | 33.8 µM | 53.8 µM | 24.6 µM | 24.6 µM | 43 µM | 81.3 µM | 55.9 µM | 21.4 µM | 30.3 µM | 19.3 µM | GI50 [2]: 27.2 µM |
